The results in this text go back to patent publication US8987502B2, “Oleanolic acid amidate derivatives, preparation methods and uses thereof” (Hangzhou Bensheng Pharmaceutical Co., Ltd., priority 2011, dated 2015).

The structures appear in SMILES notation. Where only a bound is given, the exact number is not on record here.

For one assay, the system named is K562/adr. The assay is described as follows: MTT leukemia cell proliferation inhibition, K562/adr. The note with it: Homo sapiens, 72 h; for inhibition at 16 µg/mL: 16 μg/mL compound, read-out: IR (inhibition rate); for IC50: MTT. It counts as cell-based. The source says: Leukemia cell lines: leukemia cell lines: K562/adr (drug-resistant, chronic myeloid leukemia, CML), NB4 (acute promyelocytic leukemia, AML), Kasumi-1 (acute myeloid leukemia M2 type, AML-M2), Jurkat (acute lymphoblastic leukemia, ALL), all of which are donated by Cancer Research Institute of Zhejiang University, China; and H9 (acute lymphoblastic leukemia, ALL), which is purchased from China Center for Type Culture Collection (CCTCC).
Reagents: The standard sample of oleanolic acid (OA) is purchased from Hua Kang Pharmaceutical Raw Material Factory, Shifang City, Sichuan, China; and the amidated oleanolic acid derivatives are prepared according to the present invention.
Obtaining 6000 well-growing leukemia cells and inoculating them into wells of a 96-well cell culture plate. The culture medium is the 1640 cell culture medium containing 10% fetal bovine serum. After adding the amidated oleanolic acid derivatives of different concentrations and mixing uniformly, placing the plate in a carbon dioxide cell incubator (5% CO2) at 37° C. and incubated for 72 hours. Then the relative number of viable cells is determined by the MTT method. In this experiment, the cell proliferation inhibition rate in control group (not treated with any compound) is set as 0%.

The subject of the next assay is A549. Nature of the assay: MTT solid tumor cell proliferation inhibition, A549. It counts as cell-based, human. As to conditions: Homo sapiens; for inhibition at 16 µg/mL: A549, 16 μg/mL compound, 72 h, read-out: IR (inhibition rate); for IC50: A549, 72 h, MTT. On the procedure: Human solid tumor cell lines: Hep-2 (laryngeal carcinoma), A549 (human lung cancer), CaES-17 (esophageal cancer cell), PC-3 (prostate cancer), CNE (nasopharyngeal carcinoma cell), and SK-OV-3 (ovarian cancer cell), all of which are purchased from China Center For Type Culture Collection; RKO (human colon adenocarcinoma cell), MGC 803 (human gastric cancer cell), MG63 (osteosarcoma) and U87 MG (malignant glioma cell), all of which are purchased from Fuxiang Bio-tech Co. Ltd., Shanghai, China; PANC-1 (pancreatic cancer), Hep G2 (human liver cancer cell), Becap37 (human breast cancer cell), and Hela (human cervical cancer cell), all of which are donated by Cancer Research Institute of Zhejiang University, China.
Obtaining 4000 well-growing human solid tumor cells and inoculating them into wells of a 96-well cell culture plate. The culture medium is DMEM High Glucose cell culture medium containing 10% fetal bovine serum. The plate is placed in a carbon dioxide cell incubator (5% CO2) at 37° C. for 24 hours for incubation. After being added with the amidated oleanolic acid derivatives of different concentrations and mixed uniformly, the plate is placed in a carbon dioxide cell incubator (5% CO2) at 37° C. for 72 hours for incubation. Then the relative number of the living cells is determined by the MTT method. In this experiment, the cell proliferation inhibition rate in control group (not treated with any compound) is set as 0%.

Turning to `CC1(C)CC[C@]2(NC(=O)/C=C/c3ccco3)CC[C@]3(C)C(=CC[C@@H]4[C@@]5(C)CC[C@H](O)C(C)(C)[C@@H]5CC[C@]43C)[C@@H]2C1` [BS-OA-100], the inhibition at 16 µg/mL with K562/adr was determined as 38.8%; in the assay on A549 it was 15.6%. Further, the IC50 in the assay on K562/adr and in the assay on A549 was above 16 µg/mL each time.

In the case of `Cc1ccc(C(=O)N[C@]23CCC(C)(C)C[C@H]2C2=CC[C@@H]4[C@@]5(C)CC[C@H](O)C(C)(C)[C@@H]5CC[C@@]4(C)[C@]2(C)CC3)cc1` [BS-OA-102], in the assay with K562/adr, the inhibition at 16 µg/mL came out at 57% and the concentration for half-maximal inhibition (IC50) was above 16 µg/mL. Further, in the assay with A549, the inhibition at 16 µg/mL turned out to be 13.7% and the half-maximal inhibitory concentration (IC50) was above 16 µg/mL.
